Measurements taken from the supplement of paper PMC10307832.

Assays:
Assay in all cases: relative viability (nuclei count vs DMSO), 5 days (fraction); higher = more cells survive
SW 900 = tested on: SW 900
Procedure, shortened: (§1)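 Relative viability divides the nuclei count in treated wells by that in vehicle wells. Lung cancer cell lines were seeded in 1536-well plates, dosed by pin tool the next day, and fixed and stained after 5 days in one step with final 0.05% Triton X-100, 1% formaldehyde and 1 ug/ml Hoechst. Dosing was a single drug or a fixed anchor-drug dose plus five library-drug doses (not always all listed) in √10 steps, and values are medians of duplicate plates imaged at 4×.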

H3255 = tested on: H3255
Procedure, shortened: as §1

LXF-289 = tested on: LXF-289
Procedure, shortened: as §1

NCI-H441 = tested on: NCI-H441
Procedure, shortened: as §1

NCI-H1734 = tested on: NCI-H1734
Procedure, shortened: as §1

ChaGo-K-1 = tested on: ChaGo-K-1
Procedure, shortened: as §1

NCI-H522 = tested on: NCI-H522
Procedure, shortened: as §1

NCI-H2170 = tested on: NCI-H2170
Procedure, shortened: as §1

HOP-62 = tested on: HOP-62
Procedure, shortened: as §1

NCI-H647 = tested on: NCI-H647
Procedure, shortened: as §1

LK-2 = tested on: LK-2
Procedure, shortened: as §1

NCI-H322M = tested on: NCI-H322M
Procedure, shortened: as §1

NCI-H2087 = tested on: NCI-H2087
Procedure, shortened: as §1

NCI-H1755 = tested on: NCI-H1755
Procedure, shortened: as §1

ABC-1 = tested on: ABC-1
Procedure, shortened: as §1

NCI-H2009 = tested on: NCI-H2009
Procedure, shortened: as §1

EMC-BAC-2 = tested on: EMC-BAC-2
Procedure, shortened: as §1

PC-14 = tested on: PC-14
Procedure, shortened: as §1

NCI-H596 = tested on: NCI-H596
Procedure, shortened: as §1

201T = tested on: 201T
Procedure, shortened: as §1

NCI-H3122 = tested on: NCI-H3122
Procedure, shortened: as §1

NCI-H2126 = tested on: NCI-H2126
Procedure, shortened: as §1

NCI-H1651 = tested on: NCI-H1651
Procedure, shortened: as §1

CCCCCCCCCCCC1=C(O)C(=O)C=C(O)C1=O [Embelin] + Nc1ncn([C@H]2C[C@H](O)[C@@H](CO)O2)c(=O)n1 [Decitabine] (partner 2 µM)
relative viability (SW 900; first compound 0.08 µM): 0.449 | relative viability (SW 900; first compound 0.8 µM): 0.402 | relative viability (SW 900; first compound 2.53 µM): 0.466 | relative viability (SW 900; first compound 8 µM): 0.454 | relative viability (H3255; first compound 0.08 µM): 0.502 | relative viability (H3255; first compound 0.8 µM): 0.783 | relative viability (H3255; first compound 2.53 µM): 0.617 | relative viability (H3255; first compound 8 µM): 0.656 | relative viability (LXF-289; first compound 0.08 µM): 0.396 | relative viability (LXF-289; first compound 0.8 µM): 0.419 | relative viability (LXF-289; first compound 2.53 µM): 0.455 | relative viability (LXF-289; first compound 8 µM): 0.352 | relative viability (NCI-H441; first compound 0.08 µM): 0.221 | relative viability (NCI-H441; first compound 0.8 µM): 0.268 | relative viability (NCI-H441; first compound 2.53 µM): 0.198 | relative viability (NCI-H441; first compound 8 µM): 0.237 | relative viability (NCI-H1734; first compound 0.08 µM): 0.514 | relative viability (NCI-H1734; first compound 0.8 µM): 0.56 | relative viability (NCI-H1734; first compound 2.53 µM): 0.56 | relative viability (NCI-H1734; first compound 8 µM): 0.516 | relative viability (ChaGo-K-1; first compound 0.08 µM): 0.523 | relative viability (ChaGo-K-1; first compound 0.8 µM): 0.531 | relative viability (ChaGo-K-1; first compound 2.53 µM): 0.507 | relative viability (ChaGo-K-1; first compound 8 µM): 0.484 | relative viability (NCI-H522; first compound 0.08 µM): 0.647 | relative viability (NCI-H522; first compound 0.8 µM): 0.617 | relative viability (NCI-H522; first compound 2.53 µM): 0.578 | relative viability (NCI-H522; first compound 8 µM): 0.704 | relative viability (NCI-H2170; first compound 0.08 µM): 0.514 | relative viability (NCI-H2170; first compound 0.8 µM): 0.446 | relative viability (NCI-H2170; first compound 2.53 µM): 0.506 | relative viability (NCI-H2170; first compound 8 µM): 0.456 | relative viability (HOP-62; first compound 0.08 µM): 0.193 | relative viability (HOP-62; first compound 0.8 µM): 0.22 | relative viability (HOP-62; first compound 2.53 µM): 0.205 | relative viability (HOP-62; first compound 8 µM): 0.19 | relative viability (NCI-H647; first compound 0.08 µM): 0.454 | relative viability (NCI-H647; first compound 0.8 µM): 0.379 | relative viability (NCI-H647; first compound 2.53 µM): 0.488 | relative viability (NCI-H647; first compound 8 µM): 0.277 | relative viability (LK-2; first compound 0.08 µM): 0.287 | relative viability (LK-2; first compound 0.8 µM): 0.348 | relative viability (LK-2; first compound 2.53 µM): 0.406 | relative viability (LK-2; first compound 8 µM): 0.332 | relative viability (NCI-H322M; first compound 0.08 µM): 0.603 | relative viability (NCI-H322M; first compound 0.8 µM): 0.729 | relative viability (NCI-H322M; first compound 2.53 µM): 0.813 | relative viability (NCI-H322M; first compound 8 µM): 0.754 | relative viability (NCI-H2087; first compound 0.08 µM): 0.278 | relative viability (NCI-H2087; first compound 0.8 µM): 0.295 | relative viability (NCI-H2087; first compound 2.53 µM): 0.361 | relative viability (NCI-H2087; first compound 8 µM): 0.225 | relative viability (NCI-H1755; first compound 0.08 µM): 0.767 | relative viability (NCI-H1755; first compound 0.8 µM): 0.72 | relative viability (NCI-H1755; first compound 2.53 µM): 0.781 | relative viability (NCI-H1755; first compound 8 µM): 0.753 | relative viability (ABC-1; first compound 0.08 µM): 1.02 | relative viability (ABC-1; first compound 0.8 µM): 1.11 | relative viability (ABC-1; first compound 2.53 µM): 1.04 | relative viability (ABC-1; first compound 8 µM): 1.12 | relative viability (NCI-H2009; first compound 0.08 µM): 0.407 | relative viability (NCI-H2009; first compound 0.8 µM): 0.412 | relative viability (NCI-H2009; first compound 2.53 µM): 0.369 | relative viability (NCI-H2009; first compound 8 µM): 0.351 | relative viability (EMC-BAC-2; first compound 0.08 µM): 0.945 | relative viability (EMC-BAC-2; first compound 0.8 µM): 1.01 | relative viability (EMC-BAC-2; first compound 2.53 µM): 0.958 | relative viability (EMC-BAC-2; first compound 8 µM): 0.955 | relative viability (PC-14; first compound 0.08 µM): 0.254 | relative viability (PC-14; first compound 0.8 µM): 0.21 | relative viability (PC-14; first compound 2.53 µM): 0.163 | relative viability (PC-14; first compound 8 µM): 0.209 | relative viability (NCI-H596; first compound 0.08 µM): 0.945 | relative viability (NCI-H596; first compound 0.8 µM): 0.958 | relative viability (NCI-H596; first compound 2.53 µM): 1.19 | relative viability (NCI-H596; first compound 8 µM): 1.06 | relative viability (201T; first compound 0.08 µM): 0.82 | relative viability (201T; first compound 0.8 µM): 0.884 | relative viability (201T; first compound 2.53 µM): 0.853 | relative viability (201T; first compound 8 µM): 0.831 | relative viability (NCI-H3122; first compound 0.08 µM): 0.385 | relative viability (NCI-H3122; first compound 0.8 µM): 0.446 | relative viability (NCI-H3122; first compound 2.53 µM): 0.419 | relative viability (NCI-H3122; first compound 8 µM): 0.397 | relative viability (NCI-H2126; first compound 0.08 µM): 0.514 | relative viability (NCI-H2126; first compound 0.8 µM): 0.519 | relative viability (NCI-H2126; first compound 2.53 µM): 0.589 | relative viability (NCI-H2126; first compound 8 µM): 0.513 | relative viability (NCI-H1651; first compound 0.08 µM): 0.634 | relative viability (NCI-H1651; first compound 0.8 µM): 0.67 | relative viability (NCI-H1651; first compound 2.53 µM): 0.867 | relative viability (NCI-H1651; first compound 8 µM): 0.659
